Measured values from patent publication US20020136711A1, “Compositions used in human treatment” (priority 1998, published 2002).

Key:
[1] = test system: skin flushing or rash; conditions: larger doses of niacin
Text: Typically, the form of niacin used may produce a flushing, redness or rash to the skin when consumed in large doses. […] Inositol is molecularly bonded to niacin, and in conjunction therewith serves to slow the absorption of nicotinic acid.

[2] = clinical trials: absorbability of chelated potassium; format: in vivo, human; conditions: potassium bonded or chelated with an amino acid or a simple sugar
Text: A preferred aspect of the present invention is the administering of potassium when bonded or chelated with an amino acid or a simple sugar.

Structure (SMILES) | side-effects (flushing, redness or rash to the skin) at larger doses [1] | absorbability and assimilation into the bloodstream [2]
O=C(O[C@H]1[C@H](OC(=O)c2cccnc2)[C@@H](OC(=O)c2cccnc2)[C@H](OC(=O)c2cccnc2)[C@@H](OC(=O)c2cccnc2)[C@H]1OC(=O)c1cccnc1)c1cccnc1 [niacin inositol hexanicotinate] | no side-effects | –
O=C([O-])[C@H](O)[C@@H](O)[C@H](O)[C@H](O)CO.[K+] [potassium gluconate] | – | better absorbability and assimilation into the bloodstream
